Assay results from patent EP1373298B1, “A COMPOSITION CONTAINING NOVEL COMPOUND CORNICULATONIN HAVING ANTIFUNGI PROPERTIES AND A PROCESS FOR PREPARING THE SAME” (COUNCIL OF SCIENTIFIC AND INDUSTRIAL RESEARCH, priority 2001, dated 2002).

Tests used:
Cryptococcus neoformans [1] = assay: Minimum inhibitory concentration (MIC), disk diffusion method; type: cell-based; settings: disks of 50 to 3.12 µg, 42-120 hrs at room temperature
Text: (§1) Agar: Czapek Malt Agar (Himedia laboratories Ltd.) was used for culturing Microsporum gypseum, Trichophyton mentagrophytes T. tonsurans, T. violaceum, Aspergillus fresenii and A. niger. Mycological Agar (Himedia Laboratories Ltd) was used for Cryptococcus neoformans and Candida sp.
(§2) Pathogenic fungal strains of yeast and filamentous fungi identified and gifted by Dr. Savio from Goa Medical College, Bambolim, were used for the test. Strains of Aspergillus were isolated from the infected wheat bread with sterile needle; fungal material was surface sterilized using 0.5 % sodium hypochlorite for 2-3 minutes, and then washed with small brush in sterile distilled water. Washed fungal material was transferred using needle into the sterile culture media and subcultured for purification by following standard methods (Collins and Taylor, 1967). Taxonomic identification was done by using various standard keys (Ainswort et al., 1973; Onion et al., 1981) and identification confirmed by Alka Pandey of Agarkar Research Institute, Pune.
(§3) Yeast strains (Candida sp. and Cryptococcus neoformans) were maintained by single colony transfer on mycological agar (Himedia Laboratories Ltd) at the refrigeration temperature (3-5°C). Filamentous fungi were maintained on Czapek Malt agar slants at refrigeration temperature (3-5°C), until needed for the assay.
(§4) Innocula were adjusted to 100 µl of Cryptococcus neoformans, Candida sp., Microsporum gypseum, Trichophyton tonsurans, T. violaceum and Trichophyton mentagrophytes and spread on the appropriate plates, excess moisture was allowed to absorb for 10 minutes before applying disks. Immediately prior to the assay, the testing compound of formula 1, object of the present invention, the reference compounds amphotericin B and nystatin, potency approx:750µ/mg and 4800USPunit/mg respectively, were reconstituted in triplicate in dimethylsulfoxide. […] From the stock solution 10 µl were spread on the paper disk so as to obtain final concentration of 50 µg disc^-1, 25µg disc^-1, 12.5 µg disc^-1, 6.25 µg disc^-1 and 3.12 µg disk^-1. Disks were dried at reduced pressure in the dessicator, at 28-29°C and applied to inoculated plates.
(§5) In testing, the compound of formula 1 was reconstituted in dimethylsulfoxide (DMSO) immediately prior to all assays. Dimethylsulfoxide (DMSO) alone had no detectable inhibitory effect on any of the tested microbes. Compound of formula 1 was tested against a diverse collection of yeast and filamentous fungi, some of which are resistant to the reference compound nystatin. Filamentous fungi were nystatin resistant.

Candida sp. [2] = assay: as above; type: cell-based; settings: disks of 50 to 3.12 µg, 42-120 hrs at room temperature
Text: as §1, §2, §3, §4, §5

T. violaceum [3] = assay: as above; type: cell-based; settings: disks of 50 to 3.12 µg, 42-120 hrs at room temperature
Text: as §1, §2, §3, §4, §5

Aspergillus fresenii [4] = assay: as above; type: cell-based; settings: disks of 50 to 3.12 µg, 42-120 hrs at room temperature
Text: as §1, §2, §3, §4, §5

Aspergillus niger [5] = assay: as above; type: cell-based; settings: disks of 50 to 3.12 µg, 42-120 hrs at room temperature
Text: as §1, §2, §3, §4, §5

[6] = test system: Trichophyton mentagrophytes; assay: as above; type: cell-based; settings: disks of 50 to 3.12 µg, 42-120 hrs at room temperature
Text: as §1, §2, §3, §4, §5

Microsporum gypseum [7] = assay: as above; type: cell-based; settings: disks of 50 to 3.12 µg, 42-120 hrs at room temperature
Text: as §1, §2, §3, §4, §5

T. tonsurans [8] = assay: as above; type: cell-based; settings: disks of 50 to 3.12 µg, 42-120 hrs at room temperature
Text: as §1, §2, §3, §4, §5

Cladosporium cucumerinum = settings: TLC bioassay; cited from earlier work
Cryptococcus neoformans [9] = assay: Disk diffusion assay, zone of inhibition; type: cell-based; settings: 250 µg. disk^-1, incubated 42-120 hrs at room temperature
Text: as §1, §2, §3
(§6) Disk diffusion assay: The disk diffusion assay was used for screening of antifungal activity of the compound. The stock solution for the test was prepared by dissolving 5 mg of the compound of formula 1 in 200 µl dimethylsulphoxide (DMSO). From the stock solution 10 µl were spread on the paper disc so as to obtain the final concentration of 250 µg disk^-1. Control disk was applied reconstituted with only dimethylsulphoxide and were dried at 28-29°C. Completely dried disk was applied to innoculated plates. The plates were incubated at room temperature for the period between 42- 120 hrs. to obtain maximum growth in the culture media. The zones of inhibition around the disks were measured.

T. violaceum [10] = assay: Disk diffusion assay, zone of inhibition; type: cell-based; settings: 250 µg. disk^-1, incubated 42-120 hrs at room temperature
Text: as §1, §2, §3, §6

Candida sp. [11] = assay: Disk diffusion assay, zone of inhibition; type: cell-based; settings: 250 µg. disk^-1, incubated 42-120 hrs at room temperature
Text: as §1, §2, §3, §6

Aspergillus fresenii [12] = assay: Disk diffusion assay, zone of inhibition; type: cell-based; settings: 250 µg. disk^-1, incubated 42-120 hrs at room temperature
Text: as §1, §2, §3, §6

Aspergillus niger [13] = assay: Disk diffusion assay, zone of inhibition; type: cell-based; settings: 250 µg. disk^-1, incubated 42-120 hrs at room temperature
Text: as §1, §2, §3, §6

[14] = test system: Trichophyton mentagrophytes; assay: Disk diffusion assay, zone of inhibition; type: cell-based; settings: 250 µg. disk^-1, incubated 42-120 hrs at room temperature
Text: as §1, §2, §3, §6

Microsporum gypseum [15] = assay: Disk diffusion assay, zone of inhibition; type: cell-based; settings: 250 µg. disk^-1, incubated 42-120 hrs at room temperature
Text: as §1, §2, §3, §6

T. tonsurans [16] = assay: Disk diffusion assay, zone of inhibition; type: cell-based; settings: 250 µg. disk^-1, incubated 42-120 hrs at room temperature
Text: as §1, §2, §3, §6

Molecule | MIC (Cryptococcus neoformans [1]) | MIC (Candida sp. [2]) | MIC (T. violaceum [3]) | MIC (Aspergillus fresenii [4]) | MIC (Aspergillus niger [5]) | MIC [6] | MIC (Microsporum gypseum [7]) | MIC (T. tonsurans [8]) | antifungal at (Cladosporium cucumerinum) | zones of inhibition (Cryptococcus neoformans [9]) | zones of inhibition (T. violaceum [10]) | zones of inhibition (Candida sp. [11]) | zones of inhibition (Aspergillus fresenii [12]) | zones of inhibition (Aspergillus niger [13]) | zones of inhibition [14] | zones of inhibition (Microsporum gypseum [15]) | zones of inhibition (T. tonsurans [16])
C[C@@H]1[C@H](O)[C@@H](C)/C=C/C=C/CC/C=C/C=C/C=C/C=C/C(O[C@H]2O[C@H](C)[C@@H](O)[C@H](N)[C@@H]2O)CC2O[C@](O)(CC(O)C(O)CCC(O)CC(O)CC(O)CC(=O)O[C@H]1C)CC(O)C2C(=O)O (some centres unmarked) [Nystatin] | 6.25 - 12.5 µg. disk^-1 | 6.25 -12.5 µg. disk^-1 | – | – | – | – | – | – | – | – | – | – | – | – | – | – | –
C[C@@H]1[C@H](O)[C@@H](C)/C=C/C=C/C=C/C=C/C=C/C=C/C=C/[C@H](O[C@@H]2O[C@H](C)[C@@H](O)[C@H](N)[C@@H]2O)C[C@@H]2O[C@](O)(C[C@@H](O)C[C@@H](O)[C@H](O)CC[C@@H](O)C[C@@H](O)CC(=O)O[C@H]1C)C[C@H](O)[C@H]2C(=O)O [Amphotericin B, reference compound] | 3.12 - 6.25 µg. disk^-1 | 3.12 - 6.25 µg. disk^-1 | 6.25 -12.5 µg. disk^-1 | 12.5 -25 µg. disk^-1 | 12.5 -25 µg. disk^-1 | 6.25 - 12.5 µg. disk^-1 | 6.25 -12.5 µg. disk^-1 | 6.25 - 12.5 µg. disk^-1 | – | – | – | – | – | – | – | – | –
Sakurasaponin | – | – | – | – | – | – | – | – | 1 µg | – | – | – | – | – | – | – | –
3-O-α-rhamnopyranosyl-rhamnopyranosyl-glucopyranosyl-glucoronopyranosylgluco-pyrano side 16 α-hydroxy-13, 28-epoxy oleanane [Compound 1] | 6.25 -12.5 µg. disk^-1 | 6.25 -12.5 µg. disk^-1 | 25 - 50 µg. disk^-1 | 25 -50 µg. disk^-1 | – | 25 - 50 µg. disk^-1 | 12.5 - 25 µg. disk^-1 | 12.5 - 25 µg. disk^-1 | – | 9 mm | 13 mm | 9 mm | 10 mm | 4 mm | 12 mm | 14 mm | 14 mm
